Experimental data: US12685754B2, “Method of fixating and stabilizing nitric oxide metabolites through fermentation of nitrogen-containing natural substance” (priority 2019, dated 2026)
“Also recorded” adds a separate entry of the source.

How the values were obtained:
[1] = system: mouse with DNFB-induced atopic dermatitis; assay: DNFB-induced atopic dermatitis mouse: visual examination, ear swelling, histopathology; format: in vivo, Balb/c mouse; details: histopathological test, H&E, last day of test; control DNFB + DW 843.17 ± 55.22
Description: As a test animal, 5-week old male Balb/c mouse was obtained from Samtako (South Korea) and, after acclimatization for 1 week, used for the test. The breeding chamber for test animal has controlled light and darkness cycle with an interval of 12 hours, and temperature was maintained at 23±2° C. and humidity was maintained at 50 to 60%.
Cabbage fermentation extract was used as a test sample of the test, and, specifically, fermented cabbage which has been prepared according to the method of the present invention was frozen at −80° C. and freeze-dried for 5 days (PVTFD10R, Ilshin Lab, Korea). Thus-obtained powder was dissolved in distilled water and used as a test sample. […]
Anti-atopic effect was analyzed based on visual examination, ear swelling, measurement of interferon γ in blood serum, and histopathological examination. […]

[2] = Release of nitric oxide at acidic condition like artificial stomach; format: physicochemical; details: HCl solution with NaCl and KCl; Sievers Nitric Oxide Analyzer 280i
Description: (§1) To figure the optimum fermentation condition allowing fixating and stabilization of the nitric oxide metabolites at the highest level, production amount of nitric oxide metabolites was examined depending on various fermentation temperatures, dissolved oxygen concentrations (level), and chemical oxygen demands. For measuring the nitric oxide metabolites, amount of nitric oxide was measured under acidic condition and also reducing condition using a chemical method and calculation was made for the nitric oxide metabolites. As for the acidic condition, a condition mimicking human stomach was created using hydrochloride (HCl) solution with sodium chloride (NaCl) and potassium chloride (KCl), and then nitric oxide metabolites were released in the solution. […] Thereafter, by using a nitric oxide detector (Sievers Nitric Oxide Analyzer 280i), amount of the nitric oxide metabolites fixated in fermented substance was measured.
(§2) As a test material, a fermented substance using garlic, cabbage, onion, bean sprouts, lettuce, soybean, or cricket, and sodium nitrite were used. […] As a result, from all samples other than sodium nitrite (residual nitrite ion concentration of 5 mg/L), nitrite ion was not detected.

[3] = Release of nitric oxide at reducing condition mimicking the intestinal condition of human body; format: physicochemical; details: vitamin C and sodium chloride in phosphate buffer solution
Description: as §1, §2

[4] = samples collected after measurement at acidic or reduction condition
Description: as §2

[5] = system: rat injected with DOCA (high blood pressure); assay: Blood pressure-lowering effect in test animal of high blood pressure (Example 9-2); format: in vivo, Sprague Dawley (SD) rat; details: 15-120 minutes; NaNO2 oral 18.6 mg/kg, test sample rectal 12.5 mg/kg as NO2-; once a day for 4 weeks
Description: The acclimated SD rat (8-week-old) was intraperitoneally injected with DOCA (deoxycorticosterone acetate; […] To determine an occurrence of high blood pressure, blood pressure was measured by using tail-cuff plethysmography (Muromachi Kikai, Japan), and animals with systolic blood pressure of at least 140 mmHg were selected and used for the test. When various plants rich in polyphenol are used, it is possible to obtain fermentation liquid containing both nitric oxide metabolites and polyphenol. In this example, fermented liquid obtained by fermenting Korean garlic was used for the test after concentration. Content of the nitric oxide metabolites in garlic fermentation concentrate which has been obtained after concentration was adjusted such that it is 200 ppm or higher in terms of NO2^−. It is preferable that the concentration step is carried out for 24 hours to 48 hours at temperature of 20° C. to 30° C. and stirring speed of 100 rpm to 300 rpm.

[6] = system: mouse injected with STZ (diabetes); assay: Oral glucose tolerance test for test animal of diabetes (Example 9-3); format: in vivo, C57BL/6 mouse; details: glucose 2 g/kg; 15-120 minutes; NaNO2 oral 18.6 mg/kg, test sample rectal 12.5 mg/kg; once a day for 4 weeks
Description: (§3) As a test animal, 4-week-old male C57BL/6 mouse was obtained from Samtako (South Korea) and used. The test animals were acclimated for 1 week under the same breeding chamber condition as Example 5 above. The acclimated C57BL/6 mouse was then intraperitoneally injected once with STZ (streptozotocin; Sigma-Aldrich, USA) solution, which has been prepared at concentration of 120 mg/kg in 0.1 M citrate buffer (pH 4.5), to induce diabetes. Two weeks after administering STZ, the mouse was fasted for 16 hours and blood was taken from tail vein of the test animal to measure fasting blood glucose using a simple blood glucose meter (Glucotrend, Roche, Germany). […] Body weight, feed intake amount, and blood glucose level were measured twice a week. After one week, blood glucose level was measured again and test animals which maintained fasting blood glucose of not less than 200 mg/dL were selected and used for the test.
(§4) In this example, fermented liquid obtained by fermenting Korean garlic was used for the test after concentration. Content of the nitric oxide metabolites in garlic fermentation concentrate which has been obtained after concentration was adjusted such that it is 200 ppm or higher in terms of NO2^−. It is preferable that the concentration step is carried out for 24 hours to 48 hours at temperature of 20° C. to 30° C. and stirring speed of 100 rpm to 300 rpm.

[7] = system: test animal of diabetes (STZ); assay: Blood markers of diabetes and diabetes complications after 4 weeks of administration (Example 9-4); format: in vivo, C57BL/6 mouse; details: 4 weeks once a day, NaNO2 oral, test sample rectal
Description: as §3, §4
To the test animal of diabetes prepared in Example 6, NaNO2 was administered orally once a day for 4 weeks or the test sample (garlic fermentation concentrate obtained by concentration) was administered rectally also once a day for 4 weeks. On the last day of test, blood was collected from all test animals to complete the test. After that, content of blood glucose, glycated hemoglobin, insulin, creatinine, and urea nitrogen in the collected blood were measured by using a diagnostic kit. Specifically, the blood glucose, glycated hemoglobin, and insulin of Table 3 were used for determining and analyzing the anti-diabetes effect, while creatinine and urea nitrogen of Table 3 were used for determining and analyzing the effect of alleviating the symptoms of diabetes complications. A decrease in kidney function is one of the diabetes complications, and creatinine and urea nitrogen are a clinical biomarker for measuring the kidney function.

nitrite [DNFB + N] gave an Ear thickness [1] of 463.67 ± 77.08 μm.

citrate [DNFB + CA] gave an Ear thickness [1] of 593.17 ± 71.27 μm.

For `O=N[O-].[Na+]` [NaNO2, sodium nitrite], the “release amount of nitric oxide at acidic condition like artificial stomach” value [2] was 130.7 mg/L, the “release amount of nitric oxide at reducing condition mimicking the intestinal condition of human body” value [3] was 488.4 mg/L and the “residual nitrite ion concentration” value [4] was 5 mg/L. The “change in blood pressure over time” value [5] was “rapid decrease in blood pressure; also recorded: after the sharp decrease in initial blood pressure, the blood pressure has dramatically increased again”, the “blood glucose level in OGTT” value [6] was “rapid decrease in blood glucose level; also recorded: no further decrease in the blood glucose level” and the Creatinine ([7]; control group 0.25 ± 0.05) was 0.18 ± 0.03 mg/dL. The Glycated hemoglobin ([7]; control group 7.5 ± 0.3) was 6.2 ± 0.3%, the Urea nitrogen ([7]; control group 43.2 ± 0.8) was 37.1 ± 0.5 mg/dL and the Insulin ([7]; control group 80.0 ± 10.7) was 150.0 ± 9.5 ng/mL. For the same molecule, the Fasting blood glucose ([7]; control group 480.0 ± 6.0, normal 106.0 ± 5.0) was 320.0 ± 11.0 mg/dL.
